Laboratory results from ChEMBL document CHEMBL1201862, “PubChem BioAssay data set” (2004).
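These data come from cells grown in 96-well plates and exposed to compound for 48 hours at five concentrations. Abbreviation: GI50, concentration required for 50% inhibition of growth.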 The source made the active and inactive calls. Cut-off read from the data, not from the text of the source: active = GI50 up to about 1.1 µM and inactive = higher.

What was measured:
Assay in all cases: NCI tumour cell line growth inhibition, 48 h
K562 = test system: K562
UACC-62 = test system: UACC-62
SK-OV-3 = test system: SK-OV-3
SK-MEL-5 = test system: SK-MEL-5
HOP-92 = test system: HOP-92
SNB-75 = test system: SNB-75
ACHN = test system: ACHN
OVCAR-5 = test system: OVCAR-5
SW-620 = test system: SW-620
CAKI-1 = test system: CAKI-1
SK-MEL-28 = test system: SK-MEL-28
IGROV-1 = test system: IGROV-1
NCI-H460 = test system: NCI-H460
SF-539 = test system: SF-539
SF-295 = test system: SF-295
TK-10 = test system: TK-10
OVCAR-3 = test system: OVCAR-3
A498 = test system: A498

Row | Structure (SMILES) | GI50 (K562) | GI50 (UACC-62) | GI50 (SK-OV-3) | GI50 (SK-MEL-5) | GI50 (HOP-92) | GI50 (SNB-75) | GI50 (ACHN) | GI50 (OVCAR-5) | GI50 (SW-620) | GI50 (CAKI-1) | GI50 (SK-MEL-28) | GI50 (IGROV-1) | GI50 (NCI-H460) | GI50 (SF-539) | GI50 (SF-295) | GI50 (TK-10) | GI50 (OVCAR-3) | GI50 (A498)
1 | CSc1ccc(C2OC(=O)c3ccccc32)c2ccccc12 (stereo not given) | 31 µM (inactive) | 54.3 µM (inactive) | > 100 µM (inactive) | 58.2 µM (inactive) | 49 µM (inactive) | 14.2 µM (inactive) | 88.5 µM (inactive) | > 100 µM (inactive) | > 100 µM (inactive) | 80.7 µM (inactive) | > 100 µM (inactive) | 98.9 µM (inactive) | > 100 µM (inactive) | > 100 µM (inactive) | > 100 µM (inactive) | – | – | –
2 | CC(C)(C)c1cc(C(=O)O)c2c(c1)C(=O)OC2(c1ccccc1)c1ccccc1C(=O)O (stereo not given) | > 100 µM (inactive) | > 100 µM (inactive) | 0.0611 µM (active) | – | > 100 µM (inactive) | 90.4 µM (inactive) | 77.3 µM (inactive) | > 100 µM (inactive) | > 100 µM (inactive) | > 100 µM (inactive) | > 100 µM (inactive) | – | > 100 µM (inactive) | > 100 µM (inactive) | > 100 µM (inactive) | > 100 µM (inactive) | > 100 µM (inactive) | –
3 | O=C1c2ccccc2N2OC3C4CCC(C4)C3C12c1ccccc1 (stereo not given) | 47 µM (inactive) | 93.8 µM (inactive) | > 100 µM (inactive) | 60.8 µM (inactive) | 40.8 µM (inactive) | > 100 µM (inactive) | > 100 µM (inactive) | – | > 100 µM (inactive) | – | 87.3 µM (inactive) | > 100 µM (inactive) | – | > 100 µM (inactive) | > 100 µM (inactive) | – | – | > 100 µM (inactive)
4 | COC(=O)C(C(=O)C(=O)Nc1cccc(C)c1)C1=NC(N)SS1 (stereo not given) | > 100 µM (inactive) | > 100 µM (inactive) | > 100 µM (inactive) | > 100 µM (inactive) | – | > 100 µM (inactive) | > 100 µM (inactive) | > 100 µM (inactive) | > 100 µM (inactive) | > 100 µM (inactive) | > 100 µM (inactive) | > 100 µM (inactive) | > 100 µM (inactive) | > 100 µM (inactive) | > 100 µM (inactive) | > 100 µM (inactive) | > 100 µM (inactive) | > 100 µM (inactive)
5 | NC1=C(NC(=O)Cc2ccc(F)cc2)C(=O)c2ccccc2C1=O | 58.7 µM (inactive) | 36.4 µM (inactive) | 19.4 µM (inactive) | 14.4 µM (inactive) | 23.8 µM (inactive) | 29.2 µM (inactive) | 59 µM (inactive) | > 100 µM (inactive) | > 100 µM (inactive) | > 100 µM (inactive) | > 100 µM (inactive) | 23.4 µM (inactive) | > 82.2 µM (inactive) | > 78 µM (inactive) | 33.3 µM (inactive) | 30.9 µM (inactive) | 26.4 µM (inactive) | –
6 | c1ccc(C2=NN3CN(N2)c2ccccc2OCCCOc2ccccc23)cc1 | > 100 µM (inactive) | > 100 µM (inactive) | – | > 100 µM (inactive) | – | 88.5 µM (inactive) | > 100 µM (inactive) | > 100 µM (inactive) | > 100 µM (inactive) | – | > 100 µM (inactive) | > 100 µM (inactive) | > 100 µM (inactive) | > 100 µM (inactive) | > 100 µM (inactive) | > 100 µM (inactive) | > 100 µM (inactive) | –
7 | Cc1cnc2c(c1)C(=O)C1=C(OC(C)(C)CC1O)C2=O (stereo not given) | 16.8 µM (inactive) | 3.79 µM (inactive) | 18.9 µM (inactive) | 14 µM (inactive) | 16.7 µM (inactive) | 14.4 µM (inactive) | 15.2 µM (inactive) | > 100 µM (inactive) | 14.7 µM (inactive) | – | 17.3 µM (inactive) | 15.2 µM (inactive) | 11 µM (inactive) | 16.4 µM (inactive) | 13.3 µM (inactive) | 18.5 µM (inactive) | 11.1 µM (inactive) | –
8 | CNC(=S)NNC(=O)c1c(C)nc2sccn12 | > 100 µM (inactive) | > 100 µM (inactive) | > 100 µM (inactive) | > 100 µM (inactive) | > 100 µM (inactive) | – | > 100 µM (inactive) | > 100 µM (inactive) | > 100 µM (inactive) | > 100 µM (inactive) | > 100 µM (inactive) | > 100 µM (inactive) | > 100 µM (inactive) | > 100 µM (inactive) | > 100 µM (inactive) | > 100 µM (inactive) | > 100 µM (inactive) | –
9 | CC1=C(C(=O)Nc2ccccc2)C(c2cc(Cl)cc(Cl)c2)C(C(=O)Nc2ccccc2)=C(C)N1 | 1.35 µM (inactive) | 3.94 µM (inactive) | 36.8 µM (inactive) | 13.8 µM (inactive) | – | 10.8 µM (inactive) | 8.15 µM (inactive) | 19.4 µM (inactive) | 8.28 µM (inactive) | 12.1 µM (inactive) | 14.2 µM (inactive) | 16.1 µM (inactive) | 18.6 µM (inactive) | 14.8 µM (inactive) | 10.9 µM (inactive) | 16.7 µM (inactive) | 8.22 µM (inactive) | 22.6 µM (inactive)
10 | N#CC1C(C#N)C2(c3ccccc3)C(c3ccccc3)=NN(c3ccccc3)CC12 (stereo not given) | > 100 µM (inactive) | 94.8 µM (inactive) | – | > 100 µM (inactive) | – | 36.4 µM (inactive) | > 100 µM (inactive) | > 100 µM (inactive) | > 100 µM (inactive) | > 100 µM (inactive) | > 100 µM (inactive) | > 100 µM (inactive) | > 100 µM (inactive) | > 100 µM (inactive) | > 100 µM (inactive) | > 100 µM (inactive) | > 100 µM (inactive) | > 100 µM (inactive)
11 | C=CCNC1=NC(=O)C(CC(=O)Nc2ccc([N+](=O)[O-])cc2[N+](=O)[O-])S1 (stereo not given) | – | > 100 µM (inactive) | > 100 µM (inactive) | > 100 µM (inactive) | 85.7 µM (inactive) | 66.5 µM (inactive) | 90.6 µM (inactive) | > 100 µM (inactive) | > 100 µM (inactive) | 83.8 µM (inactive) | > 100 µM (inactive) | > 100 µM (inactive) | > 100 µM (inactive) | > 100 µM (inactive) | > 100 µM (inactive) | 98.6 µM (inactive) | > 100 µM (inactive) | > 100 µM (inactive)
12 | O=C1C2C=CC(C2)C(c2ccc(O)cc2)N1O (stereo not given) | > 100 µM (inactive) | > 100 µM (inactive) | > 100 µM (inactive) | > 100 µM (inactive) | > 100 µM (inactive) | > 100 µM (inactive) | > 100 µM (inactive) | > 100 µM (inactive) | > 100 µM (inactive) | > 100 µM (inactive) | > 100 µM (inactive) | > 100 µM (inactive) | > 100 µM (inactive) | – | > 100 µM (inactive) | > 100 µM (inactive) | > 100 µM (inactive) | > 100 µM (inactive)
13 | Cc1nc2ccccc2c(=O)n1/N=C(\N=N\c1ccccc1Cl)c1ccccc1 | – | 17.5 µM (inactive) | 31 µM (inactive) | 19.4 µM (inactive) | 36.5 µM (inactive) | – | – | – | 22.7 µM (inactive) | 23.4 µM (inactive) | 41.5 µM (inactive) | 19.4 µM (inactive) | 23.9 µM (inactive) | 18.7 µM (inactive) | – | 60.5 µM (inactive) | – | 27.5 µM (inactive)
14 | COc1ccc(CNc2cnc3cc(N)ccc3n2)cc1 | > 100 µM (inactive) | > 100 µM (inactive) | – | > 100 µM (inactive) | – | 52.6 µM (inactive) | > 100 µM (inactive) | > 100 µM (inactive) | > 100 µM (inactive) | – | > 100 µM (inactive) | > 100 µM (inactive) | > 100 µM (inactive) | > 100 µM (inactive) | 94.4 µM (inactive) | > 100 µM (inactive) | > 100 µM (inactive) | –
15 | CC1(C)S[C@H](c2ccccc2C(=O)O)N[C@@H]1CC(=O)O | > 100 µM (inactive) | > 100 µM (inactive) | – | > 100 µM (inactive) | – | > 100 µM (inactive) | > 100 µM (inactive) | – | > 100 µM (inactive) | – | > 100 µM (inactive) | > 100 µM (inactive) | > 100 µM (inactive) | > 100 µM (inactive) | > 100 µM (inactive) | – | – | > 100 µM (inactive)
16 | O=C(OCC1CO1)c1cccs1 (stereo not given) | > 100 µM (inactive) | > 100 µM (inactive) | > 100 µM (inactive) | > 100 µM (inactive) | 65.6 µM (inactive) | 37 µM (inactive) | > 100 µM (inactive) | > 100 µM (inactive) | > 100 µM (inactive) | > 100 µM (inactive) | > 100 µM (inactive) | > 100 µM (inactive) | > 100 µM (inactive) | – | > 100 µM (inactive) | > 100 µM (inactive) | > 100 µM (inactive) | –
17 | Cn1cnc([N+](=O)[O-])c1Sc1nc2ccccc2s1 | – | 11.9 µM (inactive) | 15.5 µM (inactive) | 13.7 µM (inactive) | 2.77 µM (inactive) | 15.6 µM (inactive) | 15 µM (inactive) | 14.6 µM (inactive) | 4 µM (inactive) | 1.57 µM (inactive) | 9.1 µM (inactive) | 11.9 µM (inactive) | 12 µM (inactive) | 12.5 µM (inactive) | 20.8 µM (inactive) | – | 3.7 µM (inactive) | –
18 | O=C(/C=C1\Nc2ccccc2C(=O)N1c1ccc(Cl)cc1)c1ccncc1 | > 100 µM (inactive) | > 100 µM (inactive) | > 100 µM (inactive) | > 100 µM (inactive) | > 100 µM (inactive) | 20.7 µM (inactive) | > 100 µM (inactive) | > 100 µM (inactive) | > 100 µM (inactive) | > 100 µM (inactive) | > 100 µM (inactive) | – | > 100 µM (inactive) | – | 65 µM (inactive) | > 100 µM (inactive) | > 100 µM (inactive) | 75.7 µM (inactive)
